Experiments:
Format in all cases: physicochemical
[1] = Fluorescence emission spectra (emission maxima, Stokes and bathochromic shifts); conditions: for Bathochromic shift: across Toluene, CH2Cl2, DMSO (Table 3)
From the text: (§1) All commercially available compounds were purchased from Aldrich Chemical Co., GFS Chemicals, Strem Chemicals, Acros Organics, Alfa Aesar, and Advanced Chemtech and used as received, except for p-toluenesulfonyl hydrazide, which was recrystallized from methanol. Amines were purchased from Aldrich Chemical Co. as purified by redistillation and used as received. Tetrahydrofuran (THF), diethyl ether (Et2O), and dichloromethane (CH2Cl2) were purified by passing through alumina using the Sol-Tek ST-002 solvent purification system. Acetonitrile (MeCN) and toluene were freshly distilled from CaH2 prior to use. Benzene was freshly distilled from sodium/benzophenone prior to use Anhydrous N,N-dimethylformamide (DMF), 1,2-dichloroethane (DCE), and 1,4-dioxane were purchased and used as received from Aldrich Chemical Co. Purification of the compounds by flash column chromatography was performed using silica gel (32-63 μm particle size, 60 Å pore size) purchased from Silicycle, or by using a Biotage Horizon flash purification system with either Biotage SNAP KP-SIL silica cartridges, or Teledyne ISCO RediSep Rf normal phase disposable flash columns (40-60 micron). TLC analyses were performed on EMD Chemicals Silica Gel 60 F254 glass plates (250 μm thickness). ^1H NMR and ^13C NMR spectra were recorded on Bruker Avance 300 MHz, 500 MHz, or 600 MHz spectrometers. Spectra were referenced to residual chloroform (7.27 ppm, ^1H, 77.0 ppm, ^13C) or 1,2-dichlorobenzene (6.93 ppm, ^1H, 127.19 ppm, ^13C). Chemical shifts are reported in ppm, multiplicities are indicated by s (singlet), d (doublet), t (triplet), q (quartet), p (pentet), and m (multiplet). Coupling constants, J, are reported in hertz (Hz). All NMR spectra were obtained at room temperature unless otherwise specified. IR spectra were obtained using a Nicolet Avatar E.S.P. 360 FT-IR. EI mass spectroscopy was performed on a Waters Micromass GCT high resolution mass spectrometer. ES mass spectroscopy was performed on a Waters Q-TOF Ultima API, Micromass UK Limited high resolution mass spectrometer. GC mass spectrometry was performed on a Shimadzu GCMS-17A/QP5050A spectrometer. All microwave-mediated reactions were carried out using a Biotage Initiator™ Exp microwave synthesizer. The microwave parameters were set to variable power, constant temperature, with the fixed hold time set to on. The microwave reactions were carried out in 0.2-0.5 mL, 0.5-2 mL, 2-5 mL, or 10-20 mL Biotage microwave vials. […] Absorption and fluorescence spectra were recorded on Lambda 9 spectrophotometer (Perkin Elmer) and FluoroMax-3 spectrofluorometer (Jobin Yvon, Horiba), respectively. Fluorescence quantum yields were determined by taking Prodan in DMSO (quantum yield, QY=91%) as a reference. The quantum yield values were corrected for the solvent refractive index. For spectroscopic measurements, 10^−5 M solutions of dyes in 10 mm quartz-cuvettes were used (excitation wavelength was 334 nm; slits open to 2 nm).

[2] = Absorption spectra (absorption maxima) of dyes in organic solvents
From the text: as §1

[3] = Fluorescence quantum yield vs Prodan in DMSO as reference; conditions: for QY (fluorescence quantum yield vs Prodan in DMSO (91%)): excitation 334 nm, 10^-5 M
From the text: as §1

Compound: 1-(6-(Dimethylamino)-2,3-dihydro-1H-cyclopenta[b]naphthalen-4-yl)ethanone [Compound 10]
- Stokes shift ([1]; in DCM): 207 nm
- emission maximum ([1]; in dichloromethane (DCM)): 531 nm
- absorption maximum ([2]; in DCM): 324 nm

Compound: 1-(8-(dimethylamino)-2,3-dihydro-1H-cyclopenta[b]naphthalen-4-yl)ethanone [Compound 12]
- absorption and emission maxima compared with fluorophore 102a ([1]; in DCM): comparable to those observed for fluorophore 102a

Compound: CC(=O)c1c2c(cc3c(N(C)C)cccc13)CC(CO)(CO)C2 [7a]
- emission maximum ([1]; in dichloromethane (DCM)): 567 nm

Compound: CN(C)c1cccc2c(C(=O)C(C)(C)C)c3c(cc12)CC(CO)(CO)C3 [7b]
- SS (Stokes shift) ([1]; CH2Cl2 (Table 3)): 210 nm
- λem (emission maxima) ([1]; CH2Cl2 (Table 3)): 530 nm
- SS (Stokes shift) ([1]; DMSO (Table 3)): 241 nm
- λem (emission maxima) ([1]; DMSO (Table 3)): 561 nm
- SS (Stokes shift) ([1]; Toluene (Table 3)): 175 nm
- λem (emission maxima) ([1]; Toluene (Table 3)): 493 nm
- Bathochromic shift [1]: 68 nm
- λabs (absorption maxima) ([2]; CH2Cl2 (Table 3)): 320 nm
- λabs (absorption maxima) ([2]; DMSO (Table 3)): 320 nm
- λabs (absorption maxima) ([2]; Toluene (Table 3)): 318 nm

Compound: CN(C)c1ccc2cc3c(c(-c4ccc(CO)cc4)c2c1)C(=O)CC3 [15b]
- SS (Stokes shift) ([1]; CH2Cl2 (Table 3)): 110 nm
- λem (emission maxima) ([1]; CH2Cl2 (Table 3)): 537 nm
- SS (Stokes shift) ([1]; DMSO (Table 3)): 147 nm
- λem (emission maxima) ([1]; DMSO (Table 3)): 574 nm
- SS (Stokes shift) ([1]; Toluene (Table 3)): 80 nm
- λem (emission maxima) ([1]; Toluene (Table 3)): 504 nm
- Bathochromic shift [1]: 70 nm
- λabs (absorption maxima) ([2]; CH2Cl2 (Table 3)): 427 nm
- λabs (absorption maxima) ([2]; DMSO (Table 3)): 427 nm
- λabs (absorption maxima) ([2]; Toluene (Table 3)): 424 nm

Compound: CC(=O)c1c2c(cc3ccccc13)CCC2 [Compound 6a, 1-(2,3-Dihydro-1H-cyclopenta[b]naphthalen-4-yl)ethanone]
- emission maximum ([1]; in dichloromethane (DCM)): 566 nm

Compound: CC(=O)c1c2c(cc3ccc(Cl)cc13)CCC2 [Compound 6b, 1-(6-Chloro-2,3-dihydro-1H-cyclopenta[b]naphthalen-4-yl)ethanone]
- emission maximum ([1]; in dichloromethane (DCM)): 527 nm

Compound: CC(=O)c1c2c(cc3c(Cl)cccc13)CCC2 [Compound 6c, 1-(8-Chloro-2,3-dihydro-1H-cyclopenta[b]naphthalen-4-yl)ethanone]
- emission maximum ([1]; in dichloromethane (DCM)): 564 nm

Compound: CC(=O)c1c2c(cc3cc(Cl)ccc13)CCC2 [Compound 6d, 1-(7-chloro-2,3-dihydro-1H-cyclopenta[b]naphthalen-4-yl)ethanone]
- emission maximum ([1]; in dichloromethane (DCM)): 581 nm

Compound: CC(=O)c1c2c(cc3ccc(N(C)C)cc13)CCC2 [Compound 10, 1-(6-(Dimethylamino)-2,3-dihydro-1H-cyclopenta[b]naphthalen-4-yl)ethanone]
- QY (fluorescence quantum yield vs Prodan in DMSO (91%)) ([3]; 1,4-Dioxane): 46%
- QY (fluorescence quantum yield vs Prodan in DMSO (91%)) ([3]; Acetonitrile): 99%
- QY (fluorescence quantum yield vs Prodan in DMSO (91%)) ([3]; CH2Cl2): 99%
- QY (fluorescence quantum yield vs Prodan in DMSO (91%)) ([3]; CHCl3): 77%
- QY (fluorescence quantum yield vs Prodan in DMSO (91%)) ([3]; Cyclohexane): 45%
- QY (fluorescence quantum yield vs Prodan in DMSO (91%)) ([3]; DMSO): 85%
- QY (fluorescence quantum yield vs Prodan in DMSO (91%)) ([3]; EtOH): 5%
- QY (fluorescence quantum yield vs Prodan in DMSO (91%)) ([3]; THF): 75%
- QY (fluorescence quantum yield vs Prodan in DMSO (91%)) ([3]; Toluene): 62%
- quantum yield ([3]; in dichloroethane): 99%
- λem (maximum emission) ([1]; 1,4-Dioxane): 495 nm
- λem (maximum emission) ([1]; Acetonitrile): 529 nm
- λem (maximum emission) ([1]; CH2Cl2): 510 nm
- λem (maximum emission) ([1]; CHCl3): 516 nm
- λem (maximum emission) ([1]; Cyclohexane): 466 nm
- λem (maximum emission) ([1]; DMSO): 536 nm
- λem (maximum emission) ([1]; EtOH): 578 nm
- λem (maximum emission) ([1]; THF): 497 nm
- λem (maximum emission) ([1]; Toluene): 490 nm
- emission maximum ([1]; in methylene chloride): ~510 nm
- λabs (maximum absorption) ([2]; 1,4-Dioxane): 376 nm
- λabs (maximum absorption) ([2]; Acetonitrile): 375 nm
- λabs (maximum absorption) ([2]; CH2Cl2): 377 nm
- λabs (maximum absorption) ([2]; CHCl3): 377 nm
- λabs (maximum absorption) ([2]; Cyclohexane): 373 nm
- λabs (maximum absorption) ([2]; DMSO): 377 nm
- λabs (maximum absorption) ([2]; EtOH): 377 nm
- λabs (maximum absorption) ([2]; THF): 377 nm
- λabs (maximum absorption) ([2]; Toluene): 376 nm
- absorption maxima ([2]; dichloroethane): 377 nm
- absorption maximum ([2]; in methylene chloride): ~375 nm

Compound: CC(=O)c1c2c(cc3cc(N(C)C)ccc13)CCC2 [Compound 11, 1-(7-(dimethylamino)-2,3-dihydro-1H-cyclopenta[b]naphthalen-4-yl)ethanone]
- QY (fluorescence quantum yield vs Prodan in DMSO (91%)) ([3]; Acetonitrile): 18%
- QY (fluorescence quantum yield vs Prodan in DMSO (91%)) ([3]; CH2Cl2): 82%
- QY (fluorescence quantum yield vs Prodan in DMSO (91%)) ([3]; CHCl3): 41%
- QY (fluorescence quantum yield vs Prodan in DMSO (91%)) ([3]; Cyclohexane): 8%
- QY (fluorescence quantum yield vs Prodan in DMSO (91%)) ([3]; DMSO): 37%
- QY (fluorescence quantum yield vs Prodan in DMSO (91%)) ([3]; EtOH): 3%
- QY (fluorescence quantum yield vs Prodan in DMSO (91%)) ([3]; THF): 34%
- QY (fluorescence quantum yield vs Prodan in DMSO (91%)) ([3]; Toluene): 25%
- λem (maximum emission) ([1]; Acetonitrile): 545 nm
- λem (maximum emission) ([1]; CH2Cl2): 509 nm
- λem (maximum emission) ([1]; CHCl3): 514 nm
- λem (maximum emission) ([1]; Cyclohexane): 445 nm
- λem (maximum emission) ([1]; DMSO): 558 nm
- λem (maximum emission) ([1]; EtOH): 605 nm
- λem (maximum emission) ([1]; THF): 505 nm
- λem (maximum emission) ([1]; Toluene): 481 nm
- emission maximum ([1]; in methylene chloride): ~510 nm
- λabs (maximum absorption) ([2]; Acetonitrile): 370 nm
- λabs (maximum absorption) ([2]; CH2Cl2): 372 nm
- λabs (maximum absorption) ([2]; CHCl3): 373 nm
- λabs (maximum absorption) ([2]; Cyclohexane): 363 nm
- λabs (maximum absorption) ([2]; DMSO): 374 nm
- λabs (maximum absorption) ([2]; EtOH): 374 nm
- λabs (maximum absorption) ([2]; THF): 370 nm
- λabs (maximum absorption) ([2]; Toluene): 368 nm
- absorption maximum ([2]; in methylene chloride): ~375 nm

Compound: CC(=O)c1c2c(cc3c(N(C)C)cccc13)CCC2 [Compound 12, 1-(8-(dimethylamino)-2,3-dihydro-1H-cyclopenta[b]naphthalen-4-yl)ethanone]
- QY (fluorescence quantum yield vs Prodan in DMSO (91%)) ([3]; 1,4-Dioxane): 44%
- QY (fluorescence quantum yield vs Prodan in DMSO (91%)) ([3]; Acetonitrile): 23%
- QY (fluorescence quantum yield vs Prodan in DMSO (91%)) ([3]; CH2Cl2): 60%
- QY (fluorescence quantum yield vs Prodan in DMSO (91%)) ([3]; CHCl3): 40%
- QY (fluorescence quantum yield vs Prodan in DMSO (91%)) ([3]; Cyclohexane): 28%
- QY (fluorescence quantum yield vs Prodan in DMSO (91%)) ([3]; DMSO): 48%
- QY (fluorescence quantum yield vs Prodan in DMSO (91%)) ([3]; THF): 39%
- QY (fluorescence quantum yield vs Prodan in DMSO (91%)) ([3]; Toluene): 47%
- λem (maximum emission) ([1]; 1,4-Dioxane): 534 nm
- λem (maximum emission) ([1]; Acetonitrile): 590 nm
- λem (maximum emission) ([1]; CH2Cl2): 562 nm
- λem (maximum emission) ([1]; CHCl3): 562 nm
- λem (maximum emission) ([1]; Cyclohexane): 480 nm
- λem (maximum emission) ([1]; DMSO): 598 nm
- λem (maximum emission) ([1]; EtOH): 634 nm
- λem (maximum emission) ([1]; THF): 543 nm
- λem (maximum emission) ([1]; Toluene): 520 nm
- emission maximum ([1]; in methylene chloride): 562 nm
- λabs (maximum absorption) ([2]; 1,4-Dioxane): 319 nm
- λabs (maximum absorption) ([2]; Acetonitrile): 316 nm
- λabs (maximum absorption) ([2]; CH2Cl2): 334 nm
- λabs (maximum absorption) ([2]; CHCl3): 334 nm
- λabs (maximum absorption) ([2]; Cyclohexane): 314 nm
- λabs (maximum absorption) ([2]; DMSO): 334 nm
- λabs (maximum absorption) ([2]; EtOH): 334 nm
- λabs (maximum absorption) ([2]; THF): 330 nm
- λabs (maximum absorption) ([2]; Toluene): 322 nm
- absorption maximum ([2]; in methylene chloride): 332 nm

Compound: CC(=O)c1c2c(cc3ccc(N4CCCC4)cc13)CCC2 [Compound 13, 1-(6-(pyrrolidin-1-yl)-2,3-dihydro-1H-cyclopenta[b]naphthalen-4-yl)ethanone]
- SS (Stokes shift) ([1]; CH2Cl2 (Table 3)): 243 nm
- λem (emission maxima) ([1]; CH2Cl2 (Table 3)): 568 nm
- SS (Stokes shift) ([1]; DMSO (Table 3)): 271 nm
- λem (emission maxima) ([1]; DMSO (Table 3)): 598 nm
- SS (Stokes shift) ([1]; Toluene (Table 3)): 206 nm
- λem (emission maxima) ([1]; Toluene (Table 3)): 526 nm
- Bathochromic shift [1]: 72 nm
- absorption and emission maxima compared with fluorophore 102a ([1]; in DCM): comparable to those observed for fluorophore 102a
- λabs (absorption maxima) ([2]; CH2Cl2 (Table 3)): 325 nm
- λabs (absorption maxima) ([2]; DMSO (Table 3)): 327 nm
- λabs (absorption maxima) ([2]; Toluene (Table 3)): 320 nm
